Data on seven compounds can be found in patent publication US10123969B2, “Osmotic enhancement of drug/therapeutic delivery to the brain following infusion or injection into the cerebrospinal fluid” (Wisconsin Alumni Research Foundation, priority 2015, dated 2018).

Values after ≈ are worked out from the molar mass of the structure shown. Values joined by “and” are separate entries in the source; they are usually repeats but may differ in a detail not shown here. Identical values can stand only once. “Also recorded” adds a separate entry of the source. Like-named read-outs stand apart in the source and are kept apart here.

The conditions of series [1]: cited from earlier work.
Series [2] is described as follows: Fluorescence imaging of spinal cord slices after intrathecal infusion of IgG with or without mannitol. The series is classed as in vivo, rat. The method, then: FIG. 8 (A-C). […] The spinal cord has a simple structure—an outer spinal white matter that has few blood vessels and an inner spinal gray matter which has a dense network of blood vessels.
Female Sprague-Dawley rats (180-240 g) were anesthetized to a surgical plane of anesthesia using 1.3 g/kg intraperitoneal urethane (boostered to effect), tracheotomized, and placed in a stereotaxic frame (Stoelting). Atropine (0.1 mg/kg every two hours) was given subcutaneously to reduce fluid secretion in lungs. […]
For ex vivo fluorescence, AlexaFluor488 goat-anti-rabbit IgG in PBS (as provided) or in PBS with mannitol (described below) was infused at 1.6 uL/min for 50 minutes (80 uL total), a rate that is expected to be physiological as it is approximately half the CSF production rate and has been shown not to increase intracranial pressure in rats (Yang et al. J Trans Med 2013). […]
AlexaFluor 488 goat-anti-rabbit IgG was prepared in 0.27 M or 0.75 M mannitol in 0.01M PBS using 0.5 mL Amicon Ultra 100 kDa molecular weight cutoff centrifugal filters for buffer exchange. […] Concentration of IgG protein (absorbance at 280 nm) was measured using a NanoDrop 2000 (Thermo Fisher), and after concentration/buffer exchange in mannitol the protein concentration was diluted to the same concentration so animals received identical amounts of IgG whether administered in provided buffer or buffer with mannitol.

Series [3] in a line: Confocal imaging of cerebral internal carotid artery: IgG access to smooth muscle basement membrane. It counts as in vivo, rat. As for the experimental part: (§1) AlexaFluor 488 goat-anti-rabbit IgG was prepared in 0.27 M or 0.75 M mannitol in 0.01M PBS using 0.5 mL Amicon Ultra 100 kDa molecular weight cutoff centrifugal filters for buffer exchange. IgG was added to the filter and washed/spun from 0.5 mL three times with 0.27 M or 0.75 M mannitol solution (osmolality 507 mOsm/kg and 988 mOsm/kg, respectively); each spin was 10 minutes at 14,000 g. Recovery spin was 2 minutes at 1,000 g. Concentration of IgG protein (absorbance at 280 nm) was measured using a NanoDrop 2000 (Thermo Fisher), and after concentration/buffer exchange in mannitol the protein concentration was diluted to the same concentration so animals received identical amounts of IgG whether administered in provided buffer or buffer with mannitol.

For series [4] the following is noted: hypertonic solutions, animals (Speck et al. 1988); cited from earlier work.
The nature of series [5]: Osmolality of mannitol infusion solutions. The series is classed as physicochemical. As for the experimental part: as §1
We have measured the osmolality of both the 0.27 M mannitol (507-564 mOsm/kg) and 0.75 M mannitol (988-1126 mOsm/kg) solutions.

Series [6] in a line: Perivascular counting of IgG signal in brain sections after intracisternal infusion with or without mannitol (ex vivo fluorescence, ImageJ). On the set-up: species or system rat. The method, then:
Female Sprague-Dawley rats (180-240 g) were anesthetized to a surgical plane of anesthesia using 1.3 g/kg intraperitoneal urethane (boostered to effect), tracheotomized, and placed in a stereotaxic frame (Stoelting). Atropine (0.1 mg/kg every two hours) was given subcutaneously to reduce fluid secretion in lungs. An incision was made on the back of the neck and the muscles were dissected from the occipital bone to expose the atlanto-occipital membrane, which was retracted to reveal the dura overlying the cisterna magna. A custom cannula (˜1 cm long) made of 33 GA polyether ether ketone (PEEK, Plastics One) was connected to a Hamilton syringe controlled by an infusion pump (Quintessential Stereotaxic Injector, Stoelting) via polyethylene-10 tubing (Solomon Scientific). The tubing was prefilled with infusate (i.e., antibody solution with or without mannitol), the dura punctured with a dental needle, and the PEEK cannula immediately inserted at a 60-degree angle from the horizontal, advanced 1 mm into the cisterna magna, and sealed with cyanoacrylate.
For ex vivo fluorescence, AlexaFluor488 goat-anti-rabbit IgG in PBS (as provided) or in PBS with mannitol (described below) was infused at 1.6 uL/min for 50 minutes (80 uL total), a rate that is expected to be physiological as it is approximately half the CSF production rate and has been shown not to increase intracranial pressure in rats (Yang et al. J Trans Med 2013). The abdominal aorta was then cannulated and thirty minutes after the infusion completed the animal was perfused with ˜50 mL ice cold 0.01 M PBS followed by ˜450 mL 4% paraformaldehyde in 0.1 M phosphate buffer following a blood draw. The brain was removed and placed in 4% paraformaldehyde or phosphate buffered saline overnight, then sliced into 100 micrometer sections using a vibratome. Sections were imaged on an Olympus MVX10 using an Orca-flash 2.8 CMOS camera (Hamamatsu), a Lumen Dynamics X-Cite 120Q illuminator and an appropriate filter set (Chroma, U-M49002XL).
as §1
To quantify perivascular signal between treatments, images were opened in ImageJ/Fiji, thresholded to eliminate background, and the Analyze Particles command was used to count and outline ‘particles’, or perivascular signal, with no restrictions on size or circularity, as well as providing additional information such as circularity, area, and average size.

On to `C[C@H](N)C(=O)O` [L-Alanine], for which the solubility in series [1] (at 25 C (Needham et al. 1971)) is reported as 1.67 M (≈ 149 mg/mL).
Take `N[C@@H](Cc1ccccc1)C(=O)O` [L-Phenylalanine]: in series [1] (at 25 C (Needham et al. 1971)), the solubility was 0.208 M (≈ 34.4 mg/mL).
As for `CC(C)[C@H](N)C(=O)O` [L-Valine], the solubility in series [1] (at 25 C (Needham et al. 1971)) is recorded as 0.514 M (≈ 60.2 mg/mL).
As for `OC[C@@H](O)[C@@H](O[C@H]1O[C@H](CO)[C@@H](O)[C@H](O)[C@H]1O)[C@H](O)[C@@H](O)CO` [Maltitol], the solubility in series [1] (at 37 C (body temperature)) is 5.81 M (≈ 2000 mg/mL).
In the case of `OC[C@@H](O)[C@@H](O)[C@H](O)[C@@H](O)CO` [Sorbitol], in series [1] (Merck Index), the solubility in water entry was “up to 83%”.
On to `O=C[C@H](O)[C@@H](O)[C@H](O)CO` [Xylose], for which the solubility in series [1] (Merck Index, temperature not given) is on record as 8.32 M (≈ 1250 mg/mL); in series [1] (at 25 C (Gabas et al. 1988)), 3.66 M (≈ 549 mg/mL).
Turning to `OC[C@@H](O)[C@@H](O)[C@H](O)[C@H](O)CO` [mannitol], in series [2] (0.27 M mannitol co-infusion vs IgG alone), the “number of IgG perivascular profiles in spinal gray (in words)” value is “slight increase”. Further, the “number of perivascular spaces with IgG signal in spinal cord (in words)” value in series [2] (0.75 M mannitol co-infusion) is given as “striking increase”. Further, the “IgG access to the basement membrane of the smooth muscle layer (in words)” value in series [3] (0.27 M mannitol co-infusion vs IgG without mannitol) is “modestly increased; also recorded: no visible improvement”; in series [3] (0.75 M mannitol co-infusion vs IgG without mannitol) it was “strikingly increased; also recorded: markedly improved; also recorded: noticeably increased”. In addition, the “tolerability of intrathecal infusion” value in series [4] is listed as “well tolerated”. In addition, the osmolality in series [5] (0.27 M mannitol solution) was 507 mOsm/kg and 507-564 mOsm/kg; in series [5] (0.75 M mannitol solution), 988 mOsm/kg and 988-1126 mOsm/kg. The solubility in series [1] (at 40 C (just above body temperature)) was 2 M (≈ 364 mg/mL); in series [1] (at 40 C (just above body temperature), listed as Mannitol), 1.90 to 1.94 M. The “perivascular access of IgG (in words)” value in series [6] (0.27 M mannitol co-infusion vs IgG alone (controls)) was “improved access; also recorded: slight increase”. Moreover, the “brain distribution of IgG via the perivascular spaces (in words)” value in series [6] (0.75 M mannitol co-infused with labeled 150 kDa IgG) was “dramatically greater brain distribution”. In addition, the “number of vessels accessed by IgG (in words)” value in series [6] (0.75 M mannitol co-infusion vs 0.27 M mannitol co-infusion or IgG alone) is on record as “significantly increased”. The “number of vessels with perivascular signal (in words)” value in series [6] (IgG with 0.75 M mannitol co-infusion vs single domain antibody without mannitol) is recorded as “significantly higher number of vessels”. Besides, in series [6] (mannitol between 0.27 M and 0.75 M), the “dose dependence of perivascular access of IgG” value is recorded as “dose-dependent manner; also recorded: dose-dependent increase”.

By solubility is commonly meant how much of the substance goes into solution per volume.
